In publication PMC8406319, “The dCache Chemoreceptor TlpA of Helicobacter pylori Binds Multiple Attractant and Antagonistic Ligands via Distinct Sites” (mBio, 2021):
Structures can show the parent of a compound that is named as a salt. Where two headings read alike, the source gives them in different places.

Tests used:
H. pylori PMSS1 WT = assay: Temporal chemotaxis assay (live-cell video microscopy, direction changes), WT; format: cell-based, Helicobacter pylori; details: for Chemotactic response (direction changes vs mock): WT, 0.1, 1, 10 mM tested, acidic ligand stocks pH neutralized with NaOH, 10 mM most significant; for Chemotactic response, ligand stock pH not adjusted: acidic in solution, unadjusted pH
Method: H. pylori chemotactic responses toward the seven putative TlpA-dependent ligands were examined by a live-cell video microscopy assay that measures the temporal chemotaxis response to test ligands. […] Acidic conditions are sensed by chemoreceptors other than TlpA ([24], [29], [31]) and potentially mask chemotactic responses to the ligands being tested.
Cultures of H. pylori PMSS1 WT and ΔtlpA strains were grown overnight, back-diluted, and then incubated until an OD600 of 0.12 to 0.15 was reached. Cultures were treated with water (Mock) or various concentrations of compounds, as indicated. […] The cells were immediately filmed, and direction changes were counted over a 3-s swimming period in at least 100 cells per treatment from 3 biological replicates. Data are normalized to the values for the untreated control for each strain, as described in Materials and Methods. Error bars represent the standard errors of the means. *, P < 0.05; **, P < 0.01; ***, P < 0.001 (comparisons to the untreated control per strain using two-way ANOVA with Dunnett’s multiple-comparison test).
Swimming behavior assays were done with H. pylori PMSS1 strains grown in BB10 as described above. Cultures grown overnight were diluted to an optical density at 600 nm (OD600) of 0.1 in fresh BB10 and then incubated with shaking as described above until an OD600 of 0.12 to 0.15 was reached. […] The number of direction changes in a bacterial swimming trajectory was enumerated over a 3-s interval to determine whether each putative ligand is sensed as an attractant or repellent or elicits no response ([20], [25][–][30]). […] Each control is sensed by chemoreceptors other than TlpA ([24], [25], [29], [31]). The pH of BB10 upon treatment was independently assessed using a Denver Instruments pH meter. […] Therefore, to be able to compare the results to those of previous experiments, we continued resuspending acidified ligands in pure water and then adjusting the pH of the resuspended ligand using NaOH. Cultures were filmed immediately after ligand addition at a ×400 magnification using a Hamamatsu C4742-95 digital camera with μManager software (version 1.4.22), mounted on a Nikon Eclipse E600 phase-contrast microscope. For the competition chemotaxis assay, cultures of H. pylori and ligands were prepared as described above. However, 1 min after the addition of a nonchemoactive ligand at a final concentration of 10 mM, a chemoactive ligand was added at a final concentration of 10 mM, and the cultures were then filmed as described above. Videos were relabeled to blind the observer to the strain identity. For each sample, >100 3-s-long bacterial tracks from three independent cultures were analyzed manually to identify stops followed by direction changes. Data for all biological replicates under each condition were combined, and the average number of direction changes in 3 s and the standard error of the mean were calculated. For each strain, data were normalized to the values for the untreated control under each experimental condition. Statistical analysis of the data for treated versus untreated samples was performed using two-way analysis of variance (ANOVA) and Dunnett’s multiple-comparison test.

TlpAD165A = target: T1, TlpAD165A (Helicobacter pylori, UniProt O24925, D165A); assay: biochemical
T1 sequence (O24925 28-299 D165A): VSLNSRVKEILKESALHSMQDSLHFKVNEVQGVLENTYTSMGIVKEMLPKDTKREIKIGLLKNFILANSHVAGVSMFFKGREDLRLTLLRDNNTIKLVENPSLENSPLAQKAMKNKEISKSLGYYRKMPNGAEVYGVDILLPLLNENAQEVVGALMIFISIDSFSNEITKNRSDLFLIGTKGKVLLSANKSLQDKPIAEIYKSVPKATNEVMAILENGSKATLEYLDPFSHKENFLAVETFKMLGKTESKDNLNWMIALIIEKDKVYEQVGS
From the text: (§1) The periplasmic portion of TlpA (TlpALBD), amino acids 28 to 299, from Helicobacter pylori SS1 was cloned into a pBH4 expression vector (pBH4_TlpALBD) to generate an N-terminal 6×His-tagged construct, with a tobacco etch virus (TEV) protease site, under the control of isopropyl-β-D-thiogalactopyranoside (IPTG) ([19]). […] TlpALBD and all point mutants were purified as described previously by Sweeney et al. ([19]).
(§2) Purified TlpALBD was immobilized on a CM5 series S sensor chip, and binding affinities were tested using a Biacore S200 instrument (GE Healthcare) as described previously ([39], [57], [59]). Briefly, proteins were captured using an amine-coupling kit (GE Healthcare), in which the carboxylmethyl dextran matrix of the sensor chip was activated by the injection of a mixture of 0.2 M 1-ethyl-3-[(3-dimethylamino)propyl]-carbodiimide (EDC) and 0.05 M N-hydroxysuccinimide (NHS), followed by the neutralization of the remaining unreacted NHS ester groups by the injection of 1 M ethanolamine-HCl (pH 8.0). Purified TlpALBD was diluted in 10 mM sodium acetate buffer (pH 4.5) at a concentration of 100 μg/ml for immobilization to the chip. A total of 8,400 response units (RU) of TlpALBD were captured on flow cell 2. As a negative control, flow cell 1 was a blank control undergoing the same treatment as the other flow paths, without the protein injection. This set enabled double-reference subtraction of the responses (2 − 1, 3 − 1, and 4 − 1). The tested compounds were prepared as a stock concentration of 100 to 200 mM in PBS. The compounds were then diluted between 1 nM and 1 mM in a series of 1:10 dilutions in PBS and run over the flow cells at a flow rate of 30 μl/min. Between each sample testing, a series of buffer-only injections was run to enable double-blank subtraction for the sensorgram assessment. […] The data sets were analyzed using Biacore S200 evaluation software 2.0.2; sensorgrams were double-reference subtracted.

TlpAY228A = target: T2, TlpAY228A (Helicobacter pylori, UniProt O24925, Y228A); assay: biochemical
T2 sequence (O24925 28-299 Y228A): T1 sequence (O24925 28-299 D165A)
From the text: as §1, §2

TlpAY252A = target: T3, TlpAY252A (Helicobacter pylori, UniProt O24925, Y252A); assay: biochemical
T3 sequence (O24925 28-299 Y252A): T1 sequence (O24925 28-299 D165A)
From the text: as §1, §2

TlpALBD (TlpAWT) = target: T4, TlpALBD (TlpAWT) (Helicobacter pylori, UniProt O24925); assay: biochemical; details: SPR
T4 sequence (O24925 28-299): T1 sequence (O24925 28-299 D165A)
From the text: as §1, §2

TlpAM183A = target: T5, TlpAM183A (Helicobacter pylori, UniProt O24925, M183A); assay: biochemical
T5 sequence (O24925 28-299 M183A): T1 sequence (O24925 28-299 D165A)
From the text: as §1, §2

TlpAD254A = target: T6, TlpAD254A (Helicobacter pylori, UniProt O24925, D254A); assay: biochemical
T6 sequence (O24925 28-299 D254A): T1 sequence (O24925 28-299 D165A)
From the text: as §1, §2

[1] = Mean binding affinity ± SD, Table 1, n = 3
[2] = dissociation constant [Kd], WT TlpALBD

## N[C@H]1C(O)O[C@H](CO)[C@@H](O)[C@@H]1O (stereo partly drawn) [Glucosamine, D(+)-glucosamine hydrochloride]
H. pylori PMSS1 WT
  Chemotactic response (direction changes vs mock): no significant direction changes
TlpAD165A
  Kd: 96 ± 24.3 µM
TlpAY228A; read-out: Mean binding affinity ± SD, TlpAY228A, SPR, membrane-proximal mutant, n = 3
  Kd: 17.1 µM
TlpAY252A
  Kd: 2.96 ± 0.7 µM
TlpALBD (TlpAWT); [1]
  Kd: 10.5 ± 2.8 µM
TlpALBD (TlpAWT); [2]
  Kd: < 10 µM
TlpAM183A
  Kd: 94.6 ± 57.3 µM
TlpAD254A
  Kd: 9.84 ± 3.7 µM

## Cc1ncc(C[n+]2csc(CCO)c2C)c(N)n1 [Thiamine, thiamine hydrochloride]
H. pylori PMSS1 WT
  Chemotactic response (direction changes vs mock): no significant direction changes
  Chemotactic response, ligand stock pH not adjusted: significant TlpA-independent chemorepellent responses
TlpAD165A
  Kd: 43.9 ± 14.1 µM
TlpAY228A
  Kd: 29.5 ± 12.3 µM
TlpAY252A
  Kd: 35 ± 7.3 µM
TlpALBD (TlpAWT); [1]
  Kd: 60 ± 0.6 µM
TlpALBD (TlpAWT); [2]
  Kd: > 45 µM
TlpAM183A
  Kd: 18.1 ± 1.2 µM
TlpAD254A
  Kd: 39.3 ± 4.3 µM

## N[C@@H](CS)C(=O)O [Cysteine, L-cysteine hydrochloride monohydrate]
H. pylori PMSS1 WT
  Chemotactic response (direction changes vs mock): fewer direction changes
  Chemotactic response, ligand stock pH not adjusted: significant TlpA-independent chemorepellent responses
TlpAD165A
  Kd: 41.9 ± 0.4 µM
TlpAY228A
  Kd: 15.7 ± 6.6 µM
TlpAY252A
  Kd: 5.5 ± 0.8 µM
TlpALBD (TlpAWT); [1]
  Kd: 4.7 ± 0.3 µM
TlpALBD (TlpAWT); [2]
  Kd: < 10 µM
TlpAM183A
  Kd: 36.1 ± 15.7 µM
TlpAD254A
  Kd: 4.58 ± 1.5 µM

## O=C(O)C[C@H](O)C(=O)O [Malic acid, L-malic acid]
H. pylori PMSS1 WT
  Chemotactic response (direction changes vs mock): no significant direction changes
  Chemotactic response, ligand stock pH not adjusted: significant TlpA-independent chemorepellent responses
TlpAD165A
  Kd: 11.9 ± 4.3 µM
TlpAY228A
  Kd: 28.6 ± 9.4 µM
TlpAY252A
  Kd: 14.2 ± 6.2 µM
TlpALBD (TlpAWT); [1]
  Kd: 46 ± 17 µM
TlpALBD (TlpAWT); [2]
  Kd: > 45 µM
TlpAM183A
  Kd: 33.6 ± 6.2 µM
TlpAD254A
  Kd: 29.3 ± 2 µM

## O=C(O)/C=C/C(=O)O [Fumarate, sodium fumarate]
H. pylori PMSS1 WT
  Chemotactic response (direction changes vs mock): fewer direction changes
TlpAD165A
  Kd: 100 ± 38.9 µM
TlpAY228A
  Kd: 46.6 ± 3.9 µM
TlpAY252A
  Kd: 8.5 ± 1.7 µM
TlpALBD (TlpAWT); [1]
  Kd: 10 ± 1.53 µM
TlpALBD (TlpAWT); [2]
  Kd: < 10 µM
TlpAM183A
  Kd: 106 ± 36.6 µM
TlpAD254A
  Kd: 44 ± 8.1 µM
TlpAD254A; membrane-proximal mutant vs WT
  Effect of TlpAD254A mutation on binding: affected only fumarate binding

## N=C(N)NCCC[C@H](N)C(=O)O [Arginine, L-arginine monohydrochloride]
H. pylori PMSS1 WT
  Chemotactic response (direction changes vs mock): fewer direction changes
TlpAD165A
  Kd: 12.4 ± 0.84 µM
TlpAY228A
  Kd: 8.3 ± 1.6 µM
TlpAY252A
  Kd: 4.96 ± 1.8 µM
TlpALBD (TlpAWT); [1]
  Kd: 2 ± 0.11 µM
TlpALBD (TlpAWT); [2]
  Kd: < 10 µM
TlpAM183A
  Kd: 22.3 ± 5.9 µM
TlpAD254A
  Kd: 3.71 ± 0.73 µM
